From paper PMC9794833, “Ligand recognition and activation of neuromedin U receptor 2” (Nature Communications, 2022)
Values joined by “and” are separate entries in the source; they are usually repeats but may differ in a detail not shown here. Equal entries are not always repeated. Where two headings read alike, the source gives them in different places. Where a SMILES comes first, the peptide text is derived from it. [ ]: non-standard residue; d: D form. The star is where a group is joined. Propanoyl(3-cHex) = O=C(CCC1CCCCC1)*; Dap = NC[C@H](N)C(=O)O

What was measured:
[1] = target: T1, NMU2 (Homo sapiens, UniProt Q9GZQ4); design: method as in PMID 24999562, PMID 25815150, PMID 28548497; conditions: potency for NMU2; cited from earlier work
T1 construct: HA signal peptide (N); expressed in transfected cells; host or cells: HEK 293F
T1 sequence (Q9GZQ4 whole entry): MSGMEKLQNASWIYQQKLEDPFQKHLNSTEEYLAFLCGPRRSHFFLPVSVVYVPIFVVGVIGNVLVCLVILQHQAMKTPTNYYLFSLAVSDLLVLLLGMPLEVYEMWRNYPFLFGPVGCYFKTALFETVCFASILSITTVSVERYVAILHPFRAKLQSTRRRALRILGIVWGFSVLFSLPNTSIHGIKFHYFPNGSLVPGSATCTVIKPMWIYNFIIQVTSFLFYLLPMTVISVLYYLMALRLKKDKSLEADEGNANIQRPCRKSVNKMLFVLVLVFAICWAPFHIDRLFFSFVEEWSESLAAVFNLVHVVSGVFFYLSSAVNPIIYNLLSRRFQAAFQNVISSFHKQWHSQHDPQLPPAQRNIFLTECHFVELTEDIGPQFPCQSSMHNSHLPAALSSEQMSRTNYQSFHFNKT

[2] = system: NMU1; design: method as in PMID 24999562, PMID 25815150, PMID 28548497; conditions: cited from earlier work
[3] = target: T2, NMU2 N306W (Homo sapiens, UniProt Q9GZQ4, N306W); experiment: TRUPATH assay, NMU2 mutant N306W; format: cell-based
T2 construct: HA signal peptide (N); expressed in transfected cells; host or cells: HEK 293F
T2 sequence (Q9GZQ4 whole entry N306W): as the sequence (Q9GZQ4 whole entry) above, with N306W counted along it
Protocol: (§1) The plasmids of Gαi1, Gβ3, and Gγ9 used for the TRUPATH assay were purchased from Addgene (TRUPATH Kit, #1000000163). NMU2 constructs of WT and mutants were constructed into a PTT5 vector (Invitrogen) with an N-terminal HA signal peptide followed by a Flag tag. HEK 293F cells were transiently transfected with WT or mutants of NMU2, Gαi1, Gβ3, and Gγ9 at an […] ratio of 4:1:1:1 with a total of 3500 ng plasmid DNA using a transfection reagent (PEI MAX 2000, Polysciences) and cultivated at 37 °C with 5 % CO2. Cells were collected after 48-h transfection. The expression level of the receptor was measured by incubating 10 μl cells with 15 μl TBS buffer supplemented with 4% bovine serum albumin, 20% (v/v) viability staining solution7-AAD (Invitrogen, Cat#00-6993-50), and ANTI-FLAG M2-FITC antibody (Sigma, F4049; 1:100 diluted by TBS) at 4 °C for 20 min. After incubation, 175 μl TBS buffer was added, and the fluorescence signal on the cell surface was detected by an FCM (flow cytometry) reader (Millipore). The cells were diluted with 1× HBSS (Hank’s balanced salt solution) balanced buffer supplemented with 25 mM HEPES, pH 7.4, and seeded onto the 96-well opaque cell culture plates (Beyotime) at a density of 18,000 cells per well by 60 μl. Freshly prepared 50 μM coelenterazine 400a (Nanolight Technologies) was added into the well by 10 μl. After a 5 min equilibration time in the darkness, plates were then read in a Synerg^TM H1 microplate reader (BioTek) with excitation at 395 nm and emission at 410 and 515 nm by serially three times. Then, 30 μl of 3.3× agonists were added into the wells with a gradient final concentration from 10^−4–10^−13 M. Plates were read immediately again by serially five times. Data were processed and analyzed following the method in the literature by using GraphPad Prism 8.0.

[4] = target: T3, NMU2 N306Q (Homo sapiens, UniProt Q9GZQ4, N306Q); experiment: TRUPATH assay, NMU2 mutant N306Q; format: cell-based
T3 construct: HA signal peptide (N); expressed in transfected cells; host or cells: HEK 293F
T3 sequence (Q9GZQ4 whole entry N306Q): as the sequence (Q9GZQ4 whole entry) above, with N306Q counted along it
Protocol: as §1

[5] = target: T4, NMU2 H43E (Homo sapiens, UniProt Q9GZQ4, H43E); experiment: TRUPATH assay, NMU2 mutant H43E; format: cell-based; conditions: H43E
T4 construct: HA signal peptide (N); expressed in transfected cells; host or cells: HEK 293F
T4 sequence (Q9GZQ4 whole entry H43E): as the sequence (Q9GZQ4 whole entry) above, with H43E counted along it
Protocol: as §1

[6] = target: T1, NMU2; experiment: TRUPATH Gαi1βγ biosensor assay, WT NMU2; format: cell-based; conditions: WT; for CPN 116–induced G protein activation of NMU2: single replicates, in % (unit assumed)
Protocol: as §1

[7] = target: T5, NMU2 A302H (Homo sapiens, UniProt Q9GZQ4, A302H); experiment: TRUPATH assay, NMU2 mutant A302H; format: cell-based
T5 construct: HA signal peptide (N); expressed in transfected cells; host or cells: HEK 293F
T5 sequence (Q9GZQ4 whole entry A302H): as the sequence (Q9GZQ4 whole entry) above, with A302H counted along it
Protocol: as §1

[8] = target: T6, NMU2 H43W (Homo sapiens, UniProt Q9GZQ4, H43W); experiment: TRUPATH assay, NMU2 mutant H43W; format: cell-based
T6 construct: HA signal peptide (N); expressed in transfected cells; host or cells: HEK 293F
T6 sequence (Q9GZQ4 whole entry H43W): as the sequence (Q9GZQ4 whole entry) above, with H43W counted along it
Protocol: as §1

[9] = earlier manuscript version, peer review file
[10] = read-out: pEC50 mean±SEM (converted)

CPN 116–induced G protein activation of NMU2 ([3]; Log [CPN 116] M -4, single replicates): -39.3918 and -40.1037 and -18.108 | CPN 116–induced G protein activation of NMU2 ([3]; Log [CPN 116] M -5, single replicates): -35.463 and -12.1167 and -20.5536 | CPN 116–induced G protein activation of NMU2 ([3]; Log [CPN 116] M -6, single replicates): -13.9347 and -29.6651 | CPN 116–induced G protein activation of NMU2 ([3]; Log [CPN 116] M -7, single replicates): -42.0373 and -15.8433 and -22.9653 | CPN 116–induced G protein activation of NMU2 ([3]; Log [CPN 116] M -8, single replicates): -43.5336 and -18.6278 | CPN 116–induced G protein activation of NMU2 ([3]; Log [CPN 116] M -9, single replicates): -58.7333 and -19.6009 and -22.809 | CPN 116–induced G protein activation of NMU2 ([3]; Log [CPN 116] M -10, single replicates): -49.0206 and -44.7808 and -17.6453 | CPN 116–induced G protein activation of NMU2 ([3]; Log [CPN 116] M -11, single replicates): -6.043 and -10.0645 and -20.5889 | EC50 ratio EC50(mutant)/EC50(WT) [4]: 34 and ~30 | Span (window between Emax and minimal agonist response) [4]: 103±8 % of WT | reduction of potency [4, 9]: about 40 fold | EC50 ([4]; read-out: EC50): 3030 nM | EC50 [4, 10]: 3020 nM | EC50 ratio EC50(mutant)/EC50(WT) [5]: 34 and ~30 | Span (window between Emax and minimal agonist response) [5]: 68±10 % of WT | G protein activation (TRUPATH), dose-response point ([5]; Log [agonist] M -4): 54.8659 and 69.4702 and 83.0554 | reduction of potency [5, 9]: about 40 fold | EC50 ([5]; read-out: EC50): 3010 nM | EC50 [5, 10]: 3020 nM | EC50 ratio EC50(mutant)/EC50(WT) [6]: 1 | Span (window between Emax and minimal agonist response) [6]: 100±5 % of WT | EC50 ([6]; agonist-induced G protein activation, HEK 293F, read-out: EC50): 88 nM | EC50 [6, 10]: 89.1 nM | EC50 ratio EC50(mutant)/EC50(WT) [7]: 10 | Span (window between Emax and minimal agonist response) [7]: 57±12 % of WT | EC50 ([7]; read-out: EC50): 890 nM | EC50 [7, 10]: 891 nM | EC50 ratio EC50(mutant)/EC50(WT) [8]: 4 | Span (window between Emax and minimal agonist response) [8]: 113±8 % of WT | EC50 ([8]; read-out: EC50): 328 nM | EC50 [8, 10]: 331 nM
SMILES: CC(C)C[C@H](NC(=O)CCC1CCCCC1)C(=O)N[C@@H](CC(C)C)C(=O)N[C@@H](CN)C(=O)N1CCC[C@H]1C(=O)N[C@@H](CCCNC(=N)N)C(=O)N[C@@H](CC(N)=O)C(N)=O [CPN 116] ({Propanoyl(3-cHex)}-LL[Dap]PRN-NH2; N-terminus assumed)
EC50 [1]: 6.6 nM | activation of NMU1 [2]: without obvious activation of NMU1 | G protein activation (TRUPATH), dose-response point ([4]; Log [agonist] M -4): 92.4083 and 98.1528 and 132.361 and 88.4481 | G protein activation (TRUPATH), dose-response point ([4]; Log [agonist] M -5): 86.2104 and 99.9961 and 102.907 and 71.1922 | CPN 116–induced G protein activation of NMU2 ([6]; Log [CPN 116] M -4): 124.271 and 109.389 and 104.836 and 98.7874 and 114.415 and 92.1354 and 98.8516 and 96.9846 and 129.092 | CPN 116–induced G protein activation of NMU2 ([6]; Log [CPN 116] M -5): 81.0668 and 90.6105 and 83.9029 and 70.7281 and 97.1643 and 105.033 and 97.1976 and 102.389 and 91.9125 | CPN 116–induced G protein activation of NMU2 ([6]; Log [CPN 116] M -6): 123.537 and 69.0158 and 98.755 and 109.275 and 101.527 and 90.1601 and 88.5457 and 99.457 and 76.0968 and 66.3324 | CPN 116–induced G protein activation of NMU2 ([6]; Log [CPN 116] M -7): 58.8924 and 38.0271 and 51.0097 and 20.9117 and 20.6245 and 99.7769 and 42.6311 and 75.7485 and 28.5134 and 61.3823 | CPN 116–induced G protein activation of NMU2 ([6]; Log [CPN 116] M -8): 61.8786 and 27.1582 and 20.07 and 29.5038 and 13.1206 and 29.1828 and -9.383 and 21.3054 and 11.8363 and 17.7072 | CPN 116–induced G protein activation of NMU2 ([6]; Log [CPN 116] M -9): 19.9062 and -6.919 and 9.364 and -2.803 and 20.3603 and -10.3226 and 21.8665 and -7.72 and -11.2532 and 17.6747 | CPN 116–induced G protein activation of NMU2 ([6]; Log [CPN 116] M -10): 41.8708 and 6.201 and -13.4099 and 3.958 and 1.871 and 13.514 and 0.4422 and 6.532 and 9.793 and -10.7717 | CPN 116–induced G protein activation of NMU2 ([6]; Log [CPN 116] M -11): -45.0449 and -20.5889 and -0.1978 and -15.7237 and -24.3777 and 3.048 and -8.327 and 4.148 and -6.043 and -10.0645 | G protein activation (TRUPATH), dose-response point ([8]; Log [agonist] M -4): 70.3208 and 118.253 and 100.643 and 93.456 | G protein activation (TRUPATH), dose-response point ([8]; Log [agonist] M -5): 117.081 and 116.835 and 123.722 and 102.53
